In patent publication US7160916B2, “Method of increasing bone density or treating osteoporosis” (Yung Shin Pharmaceutical Ind. Co., Ltd., priority 2003, dated 2007):
Marks after values point to notes of the source that are not given here.

Legend:
osteoclasts = assay: Assay of bone resorption of osteoclast; type: cell-based, rat; details: 3-day incubation after removal of M-CSF and sRANKL, versus control
Protocol: Assay of bone resorption of osteoclast: Osteoclast precursors were isolated from rat long bones as mentioned above. The cells were re-suspended in a complete DMEM medium and plated into a calcium phosphate apatite-coated 24-well plate, OAAS (Oscotec, OCT USA Inc.) at 1×10^6 cells/0.5 ml/well. The cells were cultured for 5 days in the presence of M-CSF (20 ng/ml) plus sRANKL (50 ng/ml). Indazole 1 was injected daily for additional 3 days in the absence of M-CSF and sRANKL. Culture was terminated on day 8 and the remaining cells in the plate were lysed using 1 N NaOH. Five images per well were obtained using an inverted microscope (200×), and resorbed area was measured using an image analyzer. Local injection Male SD rats weighing 70–88 gm were used. Implantation of a cannula (22G) was done from the posteriolateral side into the proximal tibial metaphysis in both limbs of rats anesthetized with pentobarbital. The cannula had its outer end in the subcutaneous tissue. Indazole 1 was percutaneously injected through the cannula into the proximal tibia once/day for 1 week. The same concentration of DMSO diluted with normal saline was injected into the right side for comparison. On day 14, the rats were sacrificed and tibiae were fixed in 10% formaldehyde for 48 h at 4° C. The effect of Indazole 1 on resorption activity of osteoclasts was also examined. […]

α5 and β1 integrins = assay: Flow cytometry of surface expression of integrins; type: cell-based, rat; details: treatment for 24 hr
Protocol: Fibronectin (Fn) plays an important role in the regulation of adhesion, migration, and maturation of osteoblasts. Fn fibrillogenesis is involved in the process of bone mineralization. The effect of Indazole 1 on Fn fibrillogenesis in cultured osteoblasts was examined. The immobilized form of fibrillogenesis from the endogenously released Fn by monolayer Day 3˜5 osteoblasts was studied using immunocytochemistry. Incubation of Day-3 osteoblasts with Indazole 1 (10 μM) for 24 hr increased extracellular Fn assembly. Flow cytometry was used to analyze the effect of Indazole 1 on the surface expression of α5 and β1 integrins. […] On the other hand, the collagen synthesis was increased by Indazole 1 only at a higher concentration of 10 μM.

[1] = test system: ovariectomized adult female rats; assay: Ovariectomy-induced bone loss: bone size, BMD, BMC, bone volume; type: in vivo, rat
Description: Bone histomorphometry: After formalin fixation of tibia was completed, the tibiae were then decalcified in 0.5 N hydrochloric acid, dehydrated in an ascending series of ethanol solution and acetone, and embedded in paraffin. Serial sections (5 μm) were cut longitudinally and stained with Mayer's hematoxylin-eosin solution (Yang et al. (1993) Calcif Tissue Int 52:57–61). Images of the growth plate and proximal tibia were photographed using a photoMicroGraphic Digitize integrate System (MGDS; Total-Integra Technology Co., Ltd., Taipei, Taiwan). Bone volume measurements were performed on the whole secondary spongiosa, which is located under the primary spongiosa and characterized by a network of larger trabeculae. Bone volumes were calculated using an image analysis software. All measurements were done in a single-blind fashion. Ovariectomy and cut of sciatic nerve: Ovariectomy and cut of sciatic nerve were performed in adult female and male rats (3 month-old), respectively. After surgery, the rats were injected with Indazole 1 (i.p., 1 mg/Kg) or a vehicle daily for 4 weeks. On the day following the last injection, the rats were sacrificed and their tibia and femur were removed. Tibia and femur Preparation: At the end of the program, the rats were sacrificed by decapitation. The tibiae were removed, cleaned of soft tissue, and the length of the tibia was measured with a precision caliper (±0.05 mm) as described by Weinreb et al. (1991) J Bone Miner Res 6:725–731. The tibiae were fixed in 10% formaldehyde for 48 h at 4° C. for bone histomorphometry analysis. Some of the tibia and femur were also removed and kept at −20° C. for bone mineral analysis. Analysis of bone mineral density (BMD) and content (BMC): BMD and BMC of the tibia and femur were measured with a dual-energy X-ray absorptiometer (DEXA, XR-26; Norland, Fort Atkinson, Wis.). The mode adapted to the measurements of small subjects was adopted. A coefficient of variation of 0.7% was calculated from daily measurements of BMD on a lumbar phantom for more than 1 year (Yang et al. (1998) Calcif Tissue Int 63:86–90). The tibia and femur were thawed to room temperature before bone mineral analysis. The whole tibiae and femur were scanned and BMD and BMC were measured by absorptiometer. Prevention of bone loss: Ovariectomy (OVX) was performed in adult female rats (n=28). After ovariectomy, one group of the ovariectomized rats (n=16) were injected with Indazole 1 (i.p., 1 mg/kg/day), and the other group (n=12) were not. 15 un-ovarietctomized adult female rats were used as sham-operated controls and were not injected with Indazole 1. […] A 60% reduction in bone volume was observed 4 weeks after ovariectomy. […] The bone volume reached 76% of sham-operated controls.

[2] = OVX rats, 1 mg/kg daily for 4 weeks
[3] = OVX rats, i.p. 1 mg/kg daily for 1 month, mean ± S.E.

OCc1ccc(-c2nn(Cc3ccccc3)c3ccccc23)o1 [Indazole 1, 1-benzyl-3-(5′-hydroxymethyl-2′-furyl)-indazole]
resorption activity of osteoclasts (osteoclasts): significantly inhibited
cell surface expression of α5 and β1 integrins (α5 and β1 integrins): increased
bone volume relative to sham-operated controls [1, 2]: 76 % of sham-operated controls
loss of trabecular bone of tibia secondary spongiosa [1, 2]: reduced loss of trabecular bone
Femur BMC [1, 3]: 0.281 ± 0.001^b
Femur BMD [1, 3]: 0.112 ± 0.002^b
Femur length [1, 3]: 3.55 ± 0.01 cm
Femur weight [1, 3]: 0.87 ± 0.01 g
Tibia BMC [1, 3]: 0.173 ± 0.011^b
Tibia BMD [1, 3]: 0.097 ± 0.002^b
Tibia length [1, 3]: 4.05 ± 0.03 cm
Tibia weight [1, 3]: 0.67 ± 0.01 g
ovariectomy-induced loss of BMD and BMC in both tibia and femur ([1]; daily injection, i.p. 1 mg/kg/day): provided protection
